Measured values as given in US11419913B2, “Pharmaceutical compositions for inhibiting inflammatory cytokines” (S.I.S. SHULOV INNOVATIVE SCIENCE LTD., priority 2018, dated 2022).
Where a SMILES comes first, the peptide text is derived from it. [ ]: non-standard residue; d: D form. The star is where a group is joined. pGlu = O=C1CC[C@@H](C(=O)O)N1; Octanoyl = CCCCCCCC(=O)*

Columns and labels:
[1] = tested on: B6 Macrophage cells; assay: Viability of macrophages activated by LPS and palmitic acid (LDH Cytotoxicity Assay Kit); format: cell-based, mouse; settings: ZEP3 50 μg/ml, LPS 100 ng/ml; for OD (LDH Cytotoxicity Assay): 24 hours
Description: Macrophages originating from C57BL/6 mice were cultured at a density of 200,000 cells/mL in a 24-well plate (500 μl well) and incubated at 37° C. and 5% CO2 overnight. Following the overnight incubation, media were replaced with fresh media containing 100 ng/mL LPS, followed by three hours incubation. The LPS-containing media in the treatment groups were then replaced with fresh media containing ZEP3 at concentration of 50 μg/ml, followed by one-hour incubation. Next, palmitic acid (100, 200 or 400 μM) was added to the appropriate wells. The plates were incubated for additional 24 hours and the viability of cells was estimated using an LDH Cytotoxicity Assay Kit.

[2] = tested on: RANTES; assay: RANTES production in LPS-stimulated human PBMCs; format: cell-based; settings: ZEP3 40, 100 and 150 μg/ml, 1 hr pre-treatment, LPS 24 hours; 4 donors (FIG. 12)
Description: (§1) The effect of the peptide ZEP3 (SEQ ID NO: 1) on cytokine production was evaluated in an in vitro human model of inflammation. Human Peripheral Blood Mononuclear Cells (PBMCs) were stimulated using Lipopolysaccharide (LPS) to produce cytokines.
(§2) Method: Briefly, cryopreserved human PBMCs of four healthy non-smokers, not on any corticosteroids or other inflammatory drugs, were grown in RPMI 1640 with 10% heat inactivated fetal bovine serum (FBS), 100 U/ml penicillin and 100 μg/mL streptomycin (complete growth medium, CGM).
(§3) Human PBMCs were thawed and plated for all groups (1-6, Table 7), and rested for 1 hour before treatment. […] 24 hours post LPS addition, Almar Blue fluorescent at 585 nm (correlating with cell viability), is measured and supernatant is collected for cytokine determination. […]
(§4) Detailed method: cells were thawed according to manufacturer's instructions, washed in CGM and assessed for viability using trypan blue staining. […] At 24 hours post LPS stimulation, plates were read for assessment of cell viability and cell culture supernatants were harvested and stored at −80° C. for cytokine analysis. […] Cytokine production and percentage of sample stimulation vs. the average of the stimulation control were calculated.

[3] = tested on: IL-10; assay: IL-10 production in LPS-stimulated human PBMCs; format: cell-based; settings: ZEP3 40, 100 and 150 μg/ml, 1 hr pre-treatment, LPS 24 hours; 4 donors
Description: as §1, §2, §3, §4

[4] = tested on: TNF alpha; assay: ZEP3 pretreatment, expression of TNF alpha by LPS treated macrophages; format: cell-based, mouse; settings: ZEP3 50 μg/mL 1 hour before LPS 100 ng/mL
Description: Macrophages originating from C57BL/6 mice were cultured at a density of 200,000 cells/mL in a 24-well plate (500 μl wells) and placed in a 37° C., 5% CO2 Incubator overnight. Following the overnight incubation media were replaced with fresh media containing 50 μg/ml ZEP3. Following 1-hour incubation 100 ng/mL LPS was added to the appropriate wells, the plates were incubated for additional 24 hours, then the amount of TNF alpha in each well was measured.

[5] = tested on: Human primary Corneal Epithelial Cells; assay: Cell viability (LDH assay) in corneal epithelial cell culture dry eye disease model; format: cell-based
Description: (§5) The anti-inflammatory effect of the peptides in experimental corneal inflammation was tested in a cell culture model using various inflammasome inducers such as LPS, 4-HNE, Nigericin and others to model a dry-eye-disease (DED). Using a dose-response model, human primary corneal epithelial cells were pre-treated with the peptides followed by exposure to DED inducers. Expression of IL-6 was measured as well as cell viability, ROS production.
(§6) Human primary Corneal Epithelial Cells (PCS-700-010; HCECs) were treated with ZEP3 at concentrations ranging from 3 to 12 μg/ml for 2 hours then exposed to LPS, 4-HNE or Nigericin for 24 hours. Following incubation, the levels of the pro-inflammatory cytokine IL-6, cell viability and reactive oxygen species (ROS) production in the cell cultures were measured.

[6] = tested on: IL-1B; assay: IL-1B production in LPS-stimulated human PBMCs; format: cell-based; settings: ZEP3 40, 100 and 150 μg/ml, 1 hr pre-treatment, LPS 24 hours; 4 donors
Description: as §1, §2, §3, §4

[7] = tested on: IL-6; assay: IL-6 in corneal epithelial cell culture dry eye disease model; format: cell-based, human
Description: as §5, §6

[8] = tested on: IL-1beta; assay: Expression of IL-1 beta by Nigericin-activated macrophages; format: cell-based, mouse; design: IL-1beta: unit not given here; settings: ZEP4 50 μg/mL, LPS 100 ng/mL, Nigericin 20 mM
Description: Macrophage cells originating from C7BL/6 mice were cultured at a density of 200,000 cells/mL in a 24-well plate (500 μl wells) and incubated at 37° C. and […] overnight. Following the overnight incubation, media were replaced with fresh media containing 100 ng/mL LPS. Three hours later, the LPS-containing media were replaced with fresh media containing 50 μg/ml ZEP4 to treatment wells. Following one-hour incubation, Nigericin (20 mM) aliquots were added to the ZEP4 treated and LPS control wells. The plates were incubated for additional 24 hour and the amount of IL-1beta in each well was measured. Reduction in […] production in the treatment group was calculated relative to cells treated with LPS and nigericin (LPS+N).

SMILES | OD (LDH Cytotoxicity Assay) ([1]; palmitic acid 100 μM) | OD (LDH Cytotoxicity Assay) ([1]; palmitic acid 200 μM) | OD (LDH Cytotoxicity Assay) ([1]; palmitic acid 400 μM) | effect on the viability of inflammation-induced macrophage cells ([1]; palmitic acid 100, 200 or 400 μM) | RANTES production [2] | IL-10 production (FIG. 10) [3] | TNF alpha ([4]; 24 hours) [pg/mL] | % reduction of TNF alpha ([4]; vs LPS control) [%] | cell death density ([5]; HCECs treated with ZEP3 and exposed to inflammation inducer, LDH assay (FIG. 6)) [%] | reduction of cell death density ([5]; ZEP3 treated vs untreated cell culture (FIG. 6)) [%] | IL-1B production [6] | level of IL-6 in cell culture ([7]; HCECs pre-treated with ZEP3 (3 to 12 μg/ml, 2 hours), exposed to 4-HNE for 24 hr (FIG. 7)) [pg/mL] | reduction of IL-6 level ([7]; ZEP3 treated vs untreated cell culture, 4-HNE 24 hr (FIG. 7)) [%] | IL-1beta ([8]; 24 hour) | % reduction of IL-1beta ([8]; relative to LPS and nigericin (LPS+N)) [%]
CCCCCCCC(=O)NCCCC[C@H](NC(=O)[C@H](Cc1c[nH]c2ccccc12)NC(=O)[C@H](CC(N)=O)NC(=O)[C@@H]1CCC(=O)N1)C(=O)O [ZEP3, pGlu-Asn-Trp-Lys(Octanoyl)-OH] ([pGlu]NWK(Octanoyl)-OH) | 1.437 | 1.496 | 1.6095 | no significant effect | significant reduction | significant reduction | 101.2 | 46.7 | 3.625±1.092 | 82.8 | significant reduction | 38.1 ± 1.37 | 27.4 | – | –
C[C@@H](O)[C@H](NC(=O)[C@H](Cc1c[nH]c2ccccc12)NC(=O)[C@H](CC(N)=O)NC(=O)[C@@H]1CCC(=O)N1)C(=O)O [ZEP4, pGlu-Asn-Trp-Thr-OH] (HELM PEPTIDE1{[Glp].N.W.T}$$$$V2.0) | – | – | – | – | – | – | – | – | – | – | – | – | – | 157.1 | 53.8
